Here are results for 4 molecules from patent US20100305174A1, “Novel Heterocyclic Derivatives” (ORCHID RESEARCH LABORATORIES LIMITED, priority 2005, published 2010).

One test deals with 3T3-L1 cells. The experiment in a line: Glucose uptake assay using 3T3-L1 cells. As to conditions: for Stimulation Index: 1 μM, 72 hours, differentiated 3T3-L1 adipocytes, 14C deoxyglucose uptake, relative to BLX-1002. It is filed as cell-based. As to the method:
3T3-L1 cells were differentiated by the addition of differentiation cocktail (72 μg/ml insulin, 0.5 mM IBMX, 400 ng/ml Dexamethasone) for 4 days and later fed with media without differentation cocktail for 7-8 days. After differentiation the cells were incubated with the either reference compound BLX-1002 or compounds listed in the table 1 at 1 μM concentrations for 72 hours and carried out the glucose uptake assay for 10 min by the addition of KRP buffer supplemented with 2.5 μCi/ml ^14C deoxy glucose. Stimulation Index is defined as the amount of ^14C Deoxyglucose uptake induced by 1 μM of BLX-1002 incubated for 72 hrs in an assay condition as per protocol described above with differentiated 3T3-L1 adipocytes. Values of compounds mentioned in table-1 are with reference to stimulation index of reference compound BLX-1002.

The test system of the next test is MCF-7. The experiment in a line: Inhibition of breast cancer cell growth (MTS). It is filed as cell-based. As to conditions: 10 μM, six days, MTS viability. On the procedure: MCF-7 is a breast cancer cell line and they were grown in 96 well plates at 1000 cells/well. The cells were pretreated with compounds mentioned in FIG. 2 at 10 μM concentration or taxol at 1 and 2.5 μM concentration or DMSO for six consecutive days. Every 48 hrs they were stained with MTS dye and viability was checked accordingly.

The test system of the next test is HT-29. The experiment in a line: Inhibition of colon cancer cell growth (MTS). To be noted: 10 μM, six days, MTS viability. The class given is cell-based. On the procedure:
HT-29 is a colon cancer cell line and they were grown in 96 well plates with seeding concentration of 1000 cells/well. The cells were pretreated with compounds mentioned in FIG. 3 at 10 μM concentrations or taxol at 1 and 2.5 μM concentration or DMSO for six consecutive days. Every 48 hrs they were stained with MTS dye and viability was checked accordingly.

The next test has as its system IL-1β. The experiment in a line: IL-1β inhibition in LPS-challenged human PBMC. The class given is cell-based. As to conditions: LPS 100 ng/mL, 20 hours. On the procedure: (§1) Human PBMC cells were cultured and incubated with compounds listed in table-4 at 1 and 10 μM concentrations. Cells (1×10^6/mL) were challenged with lipopolysaccharides (LPS) at a concentration of (100 ng/mL) for 20 hours. Cell supernatant was analyzed for the presence of TNF-α, IL-1β and IL-6 cytokines by antibody directed enzyme-linked immunoassay.

In another test the target is T1, DPP IV (Homo sapiens, UniProt P27487).
T1 construct: using human plasma as a source of DPP IV; from tissue; host or cells: human plasma
Kind of test: DPP IV assay (human plasma as source, H-gly-pro AMC substrate). The class given is biochemical. To be noted: compared to vehicle control. On the procedure: DPP IV assay is carried by using human plasma as a source of DPP IV. The compounds were incubated at a concentration of 1 and 10 μM in assay buffer containing DPP IV enzyme. The compounds were incubated for 1 hr and then the substrate H-gly-pro AMC was added and further incubated for 20 min and then the reaction was stopped on addition of 25% glacial acetic acid. The plates were read in a spectrofluorimeter to get RFU on setting excitation wavelength of 360 nm and emission wavelength of 460 nm. Percentage inhibition is calculated as compared to vehicle control.

Another test has as its system TNF-α. Kind of test: TNF-α inhibition in LPS-challenged human PBMC. It is filed as cell-based. As to conditions: LPS 100 ng/mL, 20 hours. On the procedure: as §1
In another test the test system is 3T3-L1 fibroblasts. Kind of test: Adipogenesis assay in 3T3-L1 (Oil-red-O staining). The class given is cell-based. On the procedure: All known PPARγ agonists induce differentiation in fibroblast cells. The adipogenic potential of these compounds is correlated with their affinity to this receptor. To check quickly the affinity of compounds to these receptors, 3T3-L1 fibroblasts were treated with either DMSO control or rosiglitazone as positive control or the compounds at 1 μM concentration for several days. On day 13th, the differentiated adipocytes were stained with Oil-red-O (Sigma) and washed thoroughly to remove unbound stain and visualized under Olympus microscope. […] This is an indirect proof that example 78 have no affinity to PPARγ receptor.

Test [1] has as its system streptozotocin induced diabetic mice. Kind of test: Antidiabetic activity in streptozotocin induced diabetic mice. The class given is in vivo, Swiss albino mice. To be noted: Mus musculus, 168 h, 50 mg/kg oral, 7 days, plasma, compared to control group. On the procedure: Swiss albino mice of either sex were used in the study at the age of 10 weeks. Diabetes was induced in animals by injecting streptozotocin by i.p. route at a dose of 200 mg/kg body weight. 48 hours after streptozotocin administration, the animals were kept for fasting for 6 hours and blood was collected and plasma separated and glucose was estimated. Animals showing greater than 200 mg/dl glucose levels were considered as diabetic and these animals were randomly distributed into various groups. The compounds listed in the table 3 were administered at a dose of 50 mg/kg body weight by oral route for 7 days. Later animals were fasted for 6 hours and blood was collected and plasma separated. Biochemical estimations like glucose, cholesterol and triglycerides were carried out using the plasma. The effect of compounds mentioned in the table was expressed in terms of percentage reduction in biochemical values as compared to control group.

Like-named read-outs stand apart in the source and are kept apart here.

T1 sequence (P27487 39-766 limits assumed): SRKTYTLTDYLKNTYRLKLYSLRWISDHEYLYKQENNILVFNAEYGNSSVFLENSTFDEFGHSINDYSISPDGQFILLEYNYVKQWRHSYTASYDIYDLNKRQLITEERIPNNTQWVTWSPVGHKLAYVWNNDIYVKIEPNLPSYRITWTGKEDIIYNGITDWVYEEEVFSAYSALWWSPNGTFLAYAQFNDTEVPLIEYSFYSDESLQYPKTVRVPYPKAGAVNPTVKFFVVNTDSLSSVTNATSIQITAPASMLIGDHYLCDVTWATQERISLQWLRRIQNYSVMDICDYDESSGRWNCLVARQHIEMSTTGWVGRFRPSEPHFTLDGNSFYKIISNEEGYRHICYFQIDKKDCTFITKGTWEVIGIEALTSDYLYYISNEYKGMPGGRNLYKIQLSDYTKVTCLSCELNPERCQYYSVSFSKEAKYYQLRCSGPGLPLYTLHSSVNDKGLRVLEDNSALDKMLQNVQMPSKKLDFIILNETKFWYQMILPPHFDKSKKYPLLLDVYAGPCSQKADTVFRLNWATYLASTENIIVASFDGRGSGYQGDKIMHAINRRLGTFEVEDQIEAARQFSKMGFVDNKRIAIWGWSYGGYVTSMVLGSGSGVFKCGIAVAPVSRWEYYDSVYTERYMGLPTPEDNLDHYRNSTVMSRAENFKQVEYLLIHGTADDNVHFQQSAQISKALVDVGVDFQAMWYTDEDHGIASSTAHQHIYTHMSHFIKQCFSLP

Regarding `CN1CC(Cc2ccc(Oc3ccc(/C=C4/SC(=S)N(CC(=O)O)C4=O)cc3)cc2)OC1=O` (stereo not shown) [Example 32, 3-methyl-5-(4-{4-[(E)-(3-aceticacid-4-oxo-2-thioxo-1,3-thiazolidin-5-ylidene)methyl]phenoxy}benzyl)-1,3-oxazolidin-2-one], the “Stimulation Index” value in the test with 3T3-L1 cells stood at 0.89.

Regarding `CN1C(=O)OCC1Cc1ccc(Oc2ccc(/C=C3\C(=O)Nc4ccccc43)cc2C(F)(F)F)cc1` (stereo not shown) [Example 14], the “inhibition of breast cancer cell growth” value in the test with MCF-7 is recorded as “strong inhibitor”. The “inhibition of colon cancer cell growth” value in the test on HT-29 was “strong inhibitor”. Also, the inhibition at 10 µM stood at 32.1% with IL-1β (Homo sapiens, PBMC, 10 μM, read-out: % Inhibition IL1beta); 7.42% on DPP IV (10 μM); 25.4% in the test with TNF-α (Homo sapiens, PBMC, 10 μM, read-out: % Inhibition TNF alpha). The inhibition at 1 µM turned out to be 4.64% at DPP IV (1 μM) and 15.9% with TNF-α (Homo sapiens, PBMC, 1 μM, read-out: % Inhibition TNF alpha).

Regarding `CCN1C(=O)OCC1Cc1ccc(Oc2ccc(CC3SC(=S)NC3=O)cc2)cc1` (stereo not shown) [Example 78, 3-ethyl-4-(4-{4-[(4-oxo-2-thioxo-1,3-thiazolidin-5-yl)methyl]phenoxy}benzyl)-1,3-oxazolidin-2-one], the “adipogenesis (Oil-red-O staining)” value in the test with 3T3-L1 fibroblasts (1 μM, stained on day 13) is “remained unchanged”. In the test on 3T3-L1 fibroblasts (at tested concentrations), the “adipogenesis DRC, Oil-red-O staining” value was “did not show significant staining”. The “affinity to PPARγ receptor” value in the test with 3T3-L1 fibroblasts (indirect proof from adipogenesis assay) is “no affinity”. For the same molecule, the glucose uptake activity entry in the test with 3T3-L1 cells (statement in words, table-1 assay) is recorded as “good glucose uptake activity”. In addition, the figures for the inhibition in vivo at 50 mg/kg in test [1] (read-out: % Reduction Cholesterol), in test [1] (read-out: % Reduction Glucose) and in test [1] (read-out: % Reduction Triglycerides) were 59%, 45.4% and 44.2%, respectively.

As for “5-(3-methoxy-4-{4-[(3-methyl-2-oxo-1,3-oxazolidin-4-yl)methyl]phenoxybenzylidene)-1,3-dihydro-2H-indol-2-one [Example 11]”, the “Stimulation Index” value in the test with 3T3-L1 cells was found to be 1.12. In addition, the “% Inhibition IL1beta” value with IL-1β (1 μM) was found to be 17.10%. The “% Inhibition TNF alpha” value in the test with TNF-α (1 μM) is listed as 18.77%; with TNF-α (10 μM), 26.07%.
